This passage reports Ratio and Activity results from ChEMBL document CHEMBL3797155, “The 5-aromatic hydantoin-3-acetate derivatives as inhibitors of the tumour multidrug resistance efflux pump P-glycoprotein (ABCB1): Synthesis, crystallographic and biological studies” (Bioorg Med Chem, 2016).

Common to all, as to assay type: cell-based
Data set [1] addresses T1, ATP-dependent translocase ABCB1 (Homo sapiens, UniProt P08183). Put plainly: Inhibition of human MDR1 expressed in mouse L5178 cells assessed as rhodamine-123 accumulation measured as fluorescence activity ratio at 20 uM after 20 mins by flow cytometry relative to control. As to conditions: l5178, 20 min. (Flow cytometry measures light scatter and fluorescence of single cells or particles in a stream.)

Data set [2] deals with T1, ATP-dependent translocase ABCB1. Put plainly: Inhibition of human MDR1 expressed in mouse L5178 cells assessed as rhodamine-123 accumulation measured as fluorescence activity ratio at 2 uM after 20 mins by flow cytometry relative to control. The note with it: l5178, 20 min.
Data set [3] can be described thus: Cytotoxicity against sensitive mouse L5178 cells after 24 hrs by MTT assay. As to conditions: l5178, 24 h. In general terms: Formazan colour is commonly taken as a measure of viable cells.
Data set [4] in a line: Cytotoxicity against multidrug resistant mouse L5178 cells after 24 hrs by MTT assay. The note with it: l5178, 24 h.

T1 sequence (P08183 whole entry): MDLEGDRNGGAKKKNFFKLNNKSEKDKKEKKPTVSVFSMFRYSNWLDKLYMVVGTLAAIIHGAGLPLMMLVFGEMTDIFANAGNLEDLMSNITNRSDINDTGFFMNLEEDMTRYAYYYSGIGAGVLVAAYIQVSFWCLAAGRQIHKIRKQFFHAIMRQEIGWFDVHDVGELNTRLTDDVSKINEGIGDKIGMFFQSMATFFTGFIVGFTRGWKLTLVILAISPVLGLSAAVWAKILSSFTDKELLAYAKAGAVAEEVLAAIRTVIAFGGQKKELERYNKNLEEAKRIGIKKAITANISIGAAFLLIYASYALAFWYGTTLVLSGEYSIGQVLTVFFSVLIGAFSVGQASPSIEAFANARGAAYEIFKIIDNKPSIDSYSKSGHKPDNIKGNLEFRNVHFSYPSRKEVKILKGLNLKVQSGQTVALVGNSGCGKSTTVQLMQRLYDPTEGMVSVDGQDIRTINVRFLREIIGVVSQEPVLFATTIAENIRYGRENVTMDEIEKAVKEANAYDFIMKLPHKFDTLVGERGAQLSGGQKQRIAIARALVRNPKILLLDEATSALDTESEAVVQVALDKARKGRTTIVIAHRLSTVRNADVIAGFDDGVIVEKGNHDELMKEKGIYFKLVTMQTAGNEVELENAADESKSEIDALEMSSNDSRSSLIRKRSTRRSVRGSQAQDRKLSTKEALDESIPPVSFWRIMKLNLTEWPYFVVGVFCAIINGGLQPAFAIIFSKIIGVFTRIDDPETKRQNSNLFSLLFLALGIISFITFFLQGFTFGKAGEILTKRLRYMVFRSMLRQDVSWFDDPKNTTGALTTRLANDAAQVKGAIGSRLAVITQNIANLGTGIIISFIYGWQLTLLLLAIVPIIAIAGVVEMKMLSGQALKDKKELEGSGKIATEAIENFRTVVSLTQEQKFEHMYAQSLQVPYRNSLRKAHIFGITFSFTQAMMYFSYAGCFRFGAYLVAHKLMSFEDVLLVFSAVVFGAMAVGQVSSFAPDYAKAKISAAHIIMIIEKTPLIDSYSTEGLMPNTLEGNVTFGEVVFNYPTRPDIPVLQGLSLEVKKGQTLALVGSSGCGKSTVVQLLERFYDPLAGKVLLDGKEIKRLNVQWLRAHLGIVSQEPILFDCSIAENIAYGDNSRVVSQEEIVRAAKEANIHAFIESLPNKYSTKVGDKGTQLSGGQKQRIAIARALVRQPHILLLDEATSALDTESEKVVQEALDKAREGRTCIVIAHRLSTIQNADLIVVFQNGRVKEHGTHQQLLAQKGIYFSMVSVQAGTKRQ

For the molecule `COC(=O)CN1C(=O)N(CC(O)CN2CCN(c3ccccc3)CC2)C(c2ccccc2)(c2ccccc2)C1=O` (centres undefined), the results for the Ratio in data set [1] and in data set [2] were 90.43 and 72.64, respectively. Further, the Activity turned out to be 33 µM in data set [3] and 67 µM in data set [4].
Regarding `COc1ccccc1N1CCN(CC(O)CN2C(=O)N(CC(=O)O)C(=O)C2(c2ccccc2)c2ccccc2)CC1` (centres undefined), the Ratio in data set [1] was found to be 0.86; in data set [2] it was 0.84. The Activity in data set [3] and in data set [4] was greater than 100 µM in each case.
As to `COC(=O)CN1C(=O)N(CCCN2CCN(c3ccccc3)CC2)C(c2ccccc2)(c2ccccc2)C1=O`, the figures for the Ratio in data set [1] and in data set [2] were 116.27 and 89.34, respectively. The values for the Activity in data set [3] and in data set [4] were 40 µM and greater than 100 µM, respectively.
With `COC(=O)CN1C(=O)N(CCCCN2CCN(c3ccccc3)CC2)C(c2ccccc2)(c2ccccc2)C1=O`, the Ratio in data set [1] is recorded as 99.82; in data set [2], 77.15. For the same molecule, the Activity in data set [3] is 13 µM; in data set [4], 26 µM.
`COc1ccccc1N1CCN(CCCCN2C(=O)N(CC(=O)O)C(=O)C2(c2ccccc2)c2ccccc2)CC1`: the Ratio turned out to be 2.04 in data set [1] and 1 in data set [2]. The Activity in data set [3] and in data set [4] was greater than 100 µM each time.
Take `COC(=O)CN1C(=O)N(CCCCN2CCN(c3ccccc3F)CC2)C2(C1=O)c1ccccc1-c1ccccc12`: the Ratio is 72.04 in data set [1] and 35.38 in data set [2]. Also, the Activity in data set [3] stood at 58 µM; in data set [4] it was 84 µM.
With `O=C(O)CN1C(=O)N(CCCCN2CCN(C(=O)c3ccco3)CC2)C2(C1=O)c1ccccc1-c1ccccc12`, the Ratio is reported as 0.69 in data set [1] and 0.68 in data set [2]. In addition, the Activity in data set [3] and in data set [4] was greater than 100 µM throughout.
For the molecule `COC(=O)CN1C(=O)N(CCCCN2CCN(c3ccccc3)CC2)C2(C1=O)c1ccccc1-c1ccccc12`, the Ratio in data set [1] is listed as 70.19; in data set [2] it was 21.61. Moreover, the Activity in data set [3] was 53 µM; in data set [4], greater than 100 µM.
Consider `COC(=O)CN1C(=O)N(CCCCN2CCN(c3cccc(Cl)c3Cl)CC2)C(c2ccccc2)(c2ccccc2)C1=O`, for which the Ratio in data set [1] is on record as 98.11; in data set [2], 132.85. For the same molecule, the Activity amounted to 18 µM in data set [3] and 40 µM in data set [4].
For the molecule `COC(=O)CN1C(=O)N(CCCCN2CCN(C(=O)c3ccco3)CC2)C2(C1=O)c1ccccc1-c1ccccc12`, the Ratio is listed as 24.89 in data set [1] and 1.86 in data set [2]. In addition, the Activity was found to be 59 µM in data set [3] and 63 µM in data set [4].
The corresponding values for `COC(=O)CN1C(=O)N(CCCCN2CCN(c3ccc(F)cc3)CC2)C2(C1=O)c1ccccc1-c1ccccc12` are 71.11, 19.4, 40 µM and 56 µM.
The corresponding values for `COC(=O)CN1C(=O)N(CCCCN2CCN(c3ccccc3F)CC2)C(c2ccccc2)(c2ccccc2)C1=O` are 99.09, 102.74, greater than 100 µM and greater than 100 µM.
Take `COc1ccc(CCN(C)CCCC(C#N)(c2ccc(OC)c(OC)c2)C(C)C)cc1OC` (centres undefined) [VERAPAMIL]: the Ratio in data set [1] is given as 17.59.
